How the values were obtained:
MCF7 = experiment: Cytotoxicity, MCF7; format: cell-based; settings: human breast adenocarcinoma cell line
Description: (§1) Human neuroblastoma cell lines were cultured in Dulbecco's Modified Eagle Medium (DMEM)/F12 media. Human glioma cells were ordered from American Type Culture Collection (ATCC, Manassas, Va.), and maintained in DMEM with 4×10^−3M L-glutamine, 100 U/ml penicillin, 100 μg/ml streptomycin, and 10% fetal bovine serum (FBS). All experiments were performed at 37° C. in 5% CO2 atmosphere under cell culture conditions. Prior to γ-radiation or exposure to chemotherapeutic agents, the glioma cells were plated at a density of 156 to 8,000 cells per well in 96 well plates to account for differences in growth rates, and to obtain similar cell densities for the experimental manipulations, and cultured overnight. […] Cell cytotoxicity assay was determined by MTS [3-(4,5-dimethylthiazol-2-yl)-5-(3-carboxymethoxyphenyl)-2-(4-sulfophenyl)-2H-tetrazolium, inner salt] Cell Proliferation Assay (Promega, Madison, Wis.) or sulforhodamine B (SRB) assay at the end of the exposure period (47, 48).

ST88 = experiment: Cytotoxicity, ST88 neurofibroma cells; format: cell-based, human
Description: Cells of established neurofibroma cell lines were plated at a density of 2000-4000 cells per well in 96 well plates under standard cell culture conditions (54) and then exposed to CC-I for 2 days.

CCF-STTG1 cell tumors = experiment: Athymic nude mouse subcutaneous glioma tumor model; settings: 25 mg/kg i.p. once a week for 7 weeks
Description: The efficacy and toxicity of CC-I was tested in vivo using the athymic nude mouse subcutaneous tumor model. Ten million cells of the Temodar®-sensitive (SW1088) or Temodar®-resistant (CCF-STTG1) malignant glioma cell lines were injected into the flank of one-month-old, female athymic nude mice. When the tumor reached 32 mm^3 in size (week I on graph), CC-I (25 mg/kg) was injected intraperitoneally once a week for 7 weeks.

[1] = system: Human Astrocyte (Normal cells); experiment: Cytotoxicity, normal human astrocytes; format: cell-based
Description: The human astrocyte cells were cultured from brains of deceased amyotrophic lateral sclerosis (ALS) patients (Uniform Anatomic Gift Act of 1987). The cerebrum was isolated from the other brain regions and meninges and placed in calcium and magnesium-free Hank's buffered salt solution (CMF-HBSS). The cerebrum was diced, incubated with trypsin/EDTA (Gibco BRL, Grand Island, N.Y.) and triturated with DNase. Tissue was passed through a 135 μm Nitex screen (SEFAR America, Depew, N.Y.), washed twice with CMF-HBSS, re-suspended in media (DMEM/10% FBS, 7.5 mM glucose, 4 mM L-glutamine, 1,000 U/mL penicillin, […], 2.5 μg/mL amphotericin B), centrifuged and passed through two sets of 35 μm Nitex screens. Dissociated cells was plated in poly-D-lysine pre-coated 175 cm^2 flasks. The mixed glial cultures were grown for 14 days, and then shaken to dislodge microglia cells and oligodendrocytes that were discarded. The pure astrocytes were attached to the bottom of the flask.

CCF-STTG1 = experiment: cells
Description: Human neuroblastoma cell lines were cultured in Dulbecco's Modified Eagle Medium (DMEM)/F12 media. Human glioma cells were ordered from American Type Culture Collection (ATCC, Manassas, Va.), and maintained in DMEM with 4×10^−3M L-glutamine, 100 U/ml penicillin, 100 μg/ml streptomycin, and 10% fetal bovine serum (FBS). All experiments were performed at 37° C. in 5% CO2 atmosphere under cell culture conditions. Prior to γ-radiation or exposure to chemotherapeutic agents, the glioma cells were plated at a density of 156 to 8,000 cells per well in 96 well plates to account for differences in growth rates, and to obtain similar cell densities for the experimental manipulations, and cultured overnight. Then cells received different dosages of γ-radiation from a ^60Co source GammaCell 220 (Nordion International Inc, Ontario, Canada) or chemotherapeutic agents for another 2-6 days. Cell cytotoxicity assay was determined by MTS [3-(4,5-dimethylthiazol-2-yl)-5-(3-carboxymethoxyphenyl)-2-(4-sulfophenyl)-2H-tetrazolium, inner salt] Cell Proliferation Assay (Promega, Madison, Wis.) or sulforhodamine B (SRB) assay at the end of the exposure period (47, 48).
Temodar®-resistant cell lines were used to screen for compounds having the ability to decelerate the growth of, or kill, Temodar®-resistant cells. The efficacy of over 15,000 different compounds in the Drug Discovery Core at Pennsylvania State Hershey Medical Center was tested on Temodar®-resistant human neuroblastoma SH-SY5Y and human glioma CCF-STTG1 cell lines with a colorimetric cytotoxicity assay, the sulforhodamine B (SRB) assay (53).
Chemotype moiety compounds of CC-I were also tested on the Temodar-resistant CCF-STTG1 and Temodar®-sensitive U87-MG cell lines. The glioma cell culture and treatment is as described above.
The human glioma CCF-STTG1 cell lines were plated at a density of 5,000 cells per well in 96 well plates under standard DMEM cell culture conditions and then exposed to different concentrations of CC-I, merbarone, or ICRF-193 for 5 days. Merbarone and ICRF-193 are both topoisomerase II inhibitors (55, 56).

CCF-STTG1 cells = experiment: FITC-Annexin V/propidium iodide apoptosis assay; format: cell-based, human
Description: An FITC-labeled Annexin V/propidium iodide apoptosis assay kit (Molecular Probes) was used to determine whether CC-I induces apoptosis in an astrocytoma cell line. […] The percentage of apoptotic cells by the CC-I treatment in CCF-STTG1 cells is from 10.9±0.16% at 5 pig/ml ([…]) to 48.7±0.33% at 10 μg/ml (36.2 μM). By comparison, the positive control, actinomycin D, induced apoptosis in 47.8±0.04% of the cells at 0.05 μg/ml (39.8 nM).

C282Y/SH-SY5Y = experiment: cells; format: cell-based; settings: C282Y HFE transfected human neuroblastoma SH-SY5Y
Description: as §1

topoisomerase IIα = topoisomerase IIα (Homo sapiens, UniProt P11388); experiment: Supercoiled pHOT1 DNA relaxation assay; format: biochemical
topoisomerase IIα, sequence (P11388 whole entry): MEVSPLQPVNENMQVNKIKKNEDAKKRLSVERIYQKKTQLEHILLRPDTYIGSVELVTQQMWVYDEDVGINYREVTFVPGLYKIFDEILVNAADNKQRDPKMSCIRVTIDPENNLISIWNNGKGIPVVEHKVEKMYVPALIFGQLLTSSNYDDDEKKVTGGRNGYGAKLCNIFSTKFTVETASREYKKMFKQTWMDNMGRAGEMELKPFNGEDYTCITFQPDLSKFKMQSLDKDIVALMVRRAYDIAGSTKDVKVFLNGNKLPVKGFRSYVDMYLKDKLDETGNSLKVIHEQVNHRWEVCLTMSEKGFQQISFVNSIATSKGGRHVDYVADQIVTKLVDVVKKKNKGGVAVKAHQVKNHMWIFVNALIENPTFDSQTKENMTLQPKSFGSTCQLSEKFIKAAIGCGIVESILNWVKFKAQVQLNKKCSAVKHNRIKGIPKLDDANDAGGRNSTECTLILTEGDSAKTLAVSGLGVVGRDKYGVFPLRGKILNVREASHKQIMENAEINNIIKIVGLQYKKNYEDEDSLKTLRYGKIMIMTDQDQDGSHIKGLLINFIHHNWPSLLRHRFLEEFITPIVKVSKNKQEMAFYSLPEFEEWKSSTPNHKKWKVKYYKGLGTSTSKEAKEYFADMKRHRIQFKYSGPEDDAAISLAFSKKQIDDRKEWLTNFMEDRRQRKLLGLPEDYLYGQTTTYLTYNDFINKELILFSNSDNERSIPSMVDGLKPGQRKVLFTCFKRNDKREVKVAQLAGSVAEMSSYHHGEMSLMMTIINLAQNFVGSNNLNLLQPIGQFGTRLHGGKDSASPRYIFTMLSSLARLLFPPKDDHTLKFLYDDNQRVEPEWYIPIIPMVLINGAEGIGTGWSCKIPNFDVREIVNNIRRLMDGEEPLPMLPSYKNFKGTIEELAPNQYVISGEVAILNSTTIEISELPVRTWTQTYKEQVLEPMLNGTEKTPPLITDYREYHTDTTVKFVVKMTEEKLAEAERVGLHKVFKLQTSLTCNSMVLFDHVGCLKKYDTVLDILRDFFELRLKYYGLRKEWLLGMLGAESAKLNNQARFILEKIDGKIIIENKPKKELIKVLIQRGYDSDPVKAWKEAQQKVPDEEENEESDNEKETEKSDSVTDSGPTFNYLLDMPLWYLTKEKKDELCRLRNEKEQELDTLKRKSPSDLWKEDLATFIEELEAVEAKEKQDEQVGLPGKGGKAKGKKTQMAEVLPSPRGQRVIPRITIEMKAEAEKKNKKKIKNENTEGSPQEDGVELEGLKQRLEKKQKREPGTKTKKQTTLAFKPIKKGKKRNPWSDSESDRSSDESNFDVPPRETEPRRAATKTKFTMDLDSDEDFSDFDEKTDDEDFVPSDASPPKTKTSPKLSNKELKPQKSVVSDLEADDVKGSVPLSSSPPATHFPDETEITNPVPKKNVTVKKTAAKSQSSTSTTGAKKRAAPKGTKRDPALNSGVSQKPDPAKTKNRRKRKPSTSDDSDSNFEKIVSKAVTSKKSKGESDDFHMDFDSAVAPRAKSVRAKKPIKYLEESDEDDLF

CCN1C(=O)C(=C/C=C/c2ccco2)C(=O)NC1=S [CC-I]
IC50 (MCF7): 15.6 µM | LD50 (ST88; ST88 neurofibroma cells, 2 days exposure): 2.1 µg/mL | IC50 (ST88; human neurofibroma cell line): 7.5 µM | body weight of the mice (CCF-STTG1 cell tumors): not affected | liver or kidney toxicity (CCF-STTG1 cell tumors): No liver or kidney toxicity | growth of subcutaneous tumors (CCF-STTG1 cell tumors; CCF-STTG1 tumors, nude mice): completely inhibited | toxicity to normal human astrocytes ([1]; at concentrations toxic to Temodar-resistant glioma cells): not toxic | IC50 ([1]; normal cells): 16.4 µM | cytotoxicity compared with merbarone or ICRF-193 (CCF-STTG1; CCF-STTG1, 5 days): more cytotoxic | IC50 (CCF-STTG1; read-out: IC50 (μM) CCF-STTG1, human astrocytoma or glioblastoma cell line, Temodar-resistant): 4.3 µM | percentage of apoptotic cells (CCF-STTG1 cells; CCF-STTG1, at 10 μg/ml (36.2 μM)): 48.7±0.33% | percentage of apoptotic cells (CCF-STTG1 cells; CCF-STTG1, at 5 pig/ml (18.1 µM)): 10.9±0.16% | IC50 (C282Y/SH-SY5Y): 1.8 µM | concentration completely inhibiting topoisomerase IIα catalyzed pHOT1 relaxation (topoisomerase IIα): greater than 3 μg/ml | most effective concentration on topoisomerase IIα activity (topoisomerase IIα): 3 µg/mL
